Several values for one entry are separate records, joined by “and”; a condition that tells them apart may be missing. Equal entries are not always repeated. Where two headings read alike, the source gives them in different places. Numbered stars: 1 amine (or outer) side, 2 acyl side, 3 side chain; on linkers, the order of the positions; unused ones are H or OH. Square brackets hold non-standard residues; d marks the D form. Peptide text beside a SMILES is read from it. * marks the point of attachment. C18 diacid = O=C(O)CCCCCCCCCCCCCCCCC(=O)*; γGlu = O=C(O)[C@H](CCC(=O)[*:2])N[*:1]; NMeL = CN[C@@H](CC(C)C)C(=O)O; hSer = N[C@@H](CCO)C(=O)O; Nle = CCCC[C@H](N)C(=O)O; AEEA = NCCOCCOCC(=O)O
Legend:
hNK2R [1] = molecular target: T1, hNK2R (Homo sapiens, UniProt P21452); experiment: 3H-NKA competitive binding on transfected COS-7 cells; conditions: competition with 3H-NKA, 4 h at 4 C
T1 construct: host or cells: COS-7
T1 sequence (P21452 1-398): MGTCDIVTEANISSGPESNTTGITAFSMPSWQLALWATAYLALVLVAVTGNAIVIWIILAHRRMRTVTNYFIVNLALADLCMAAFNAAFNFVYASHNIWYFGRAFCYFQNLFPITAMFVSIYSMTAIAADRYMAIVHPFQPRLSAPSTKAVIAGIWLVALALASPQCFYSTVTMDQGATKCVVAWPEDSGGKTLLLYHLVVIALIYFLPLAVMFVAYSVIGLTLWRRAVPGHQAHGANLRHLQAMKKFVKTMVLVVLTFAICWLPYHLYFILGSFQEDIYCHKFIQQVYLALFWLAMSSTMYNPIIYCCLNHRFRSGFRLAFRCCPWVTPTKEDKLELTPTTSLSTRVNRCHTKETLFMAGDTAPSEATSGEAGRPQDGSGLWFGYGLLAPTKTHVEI
Method: Assays were carried out using COS-7 cells transiently transfected by calcium phosphate transfection with a vector pcDNA3.1(+) encoding one of the indicated receptors (Genscript). Briefly, DNA mixed with CaCl2 (2 M) and TE-buffer (10 mM Tris-HCl, 1 mM EDTA, pH 7.5) was dropwise added to 2×HBS (50 mM HEPES, 280 mM NaCl, 1.5 mM NaH2PO4, pH 7.2) and incubated for 45 min at room temperature (22±2° C.). The mixture and a final concentration of 100 μM Chloroquine were added to the cells and left to incubate for 5 hours at 37° C. under standard cell culture conditions (10% CO2) before changing medium to fresh maintenance medium.
The ^3H-NKA binding assay measures peptide-receptor binding by a competitive principle of receptor binding between radioactively labelled (3H) NKA (tracer) and synthesized peptide ligands on live cells expressing the receptor of interest. Assay solutions used: TKR buffer (50 mM Tris/HCl pH 7.5, 5 mM MnCl2, and 150 mM NaCl), wash buffer (TKR buffer+0.2% w/v OvAlb), binding buffer (wash buffer+0.1 mg/ml Bacitracin), and tracer solution (binding buffer+˜15000 cpm/well ^3H-tracer). The assay was performed on ice the day after transfection.
Briefly, maintenance medium was aspirated, and plates were washed ×1 in cold wash buffer before adding 100 μl cold binding buffer and placing at 4° C. to let plates cool. The cold plates were added indicated peptides (ligand) immediately followed by addition of cold tracer solution (˜15000 cpm/well). Plates were immediately moved to 4° C. and incubated for 4 hours. After incubation, binding was stopped by wash ×2 with cold wash buffer before adding 225 μl Ultima Gold XR. Plates were shaken at medium speed for approximately 30 min and left overnight at room temperature before counting the plates in a MicroBeta plate counter (Perkin Elmer).

hNK2R [2] = molecular target: T1, hNK2R; experiment: IP3 assay (inositol trisphosphate, 3H-myoinositol) in transiently transfected COS-7 cells; format: cell-based; conditions: COS-7 cells; for EC50: 0.2% ovalbumin buffer; for hNK2R, IP3 Efficacy: figure legends: percent of 10^-6 M NKA
Summary of the method: (§1)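 COS-7 cells were transiently transfected with receptor plasmid and labelled with ³H-myo-inositol. Cells were lysed in formic acid, and ³H-inositol phosphates were captured on SPA YSI beads and counted.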

hNK1R = molecular target: T2, hNK1R (Homo sapiens, UniProt P25103); experiment: as above; format: cell-based; conditions: for EC50: 0.2% ovalbumin buffer
T2 construct: host or cells: COS-7
Summary of the method: as §1

hNK3R = molecular target: T3, hNK3R (Homo sapiens, UniProt P29371); experiment: as above; format: cell-based; conditions: for EC50: 0.2% ovalbumin buffer, read-out: hNK3, IP3 EC50
T3 construct: host or cells: COS-7
T3 sequence (P29371 1-465): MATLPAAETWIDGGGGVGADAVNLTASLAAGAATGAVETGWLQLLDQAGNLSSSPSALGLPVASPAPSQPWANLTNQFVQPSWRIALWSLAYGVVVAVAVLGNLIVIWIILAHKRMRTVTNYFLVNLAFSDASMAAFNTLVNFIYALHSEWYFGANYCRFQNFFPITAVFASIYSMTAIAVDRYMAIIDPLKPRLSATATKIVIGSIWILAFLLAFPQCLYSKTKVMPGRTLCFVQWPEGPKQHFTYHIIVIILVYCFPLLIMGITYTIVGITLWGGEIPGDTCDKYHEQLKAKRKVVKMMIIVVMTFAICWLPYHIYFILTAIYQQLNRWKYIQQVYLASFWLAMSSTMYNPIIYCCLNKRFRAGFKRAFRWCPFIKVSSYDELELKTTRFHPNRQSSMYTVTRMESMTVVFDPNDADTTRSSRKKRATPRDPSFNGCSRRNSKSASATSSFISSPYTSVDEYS
Summary of the method: as §1

[3] = COS-7 cells, figure legends: percent of 10^-6 M NKA

T2 sequence (P25103 whole entry): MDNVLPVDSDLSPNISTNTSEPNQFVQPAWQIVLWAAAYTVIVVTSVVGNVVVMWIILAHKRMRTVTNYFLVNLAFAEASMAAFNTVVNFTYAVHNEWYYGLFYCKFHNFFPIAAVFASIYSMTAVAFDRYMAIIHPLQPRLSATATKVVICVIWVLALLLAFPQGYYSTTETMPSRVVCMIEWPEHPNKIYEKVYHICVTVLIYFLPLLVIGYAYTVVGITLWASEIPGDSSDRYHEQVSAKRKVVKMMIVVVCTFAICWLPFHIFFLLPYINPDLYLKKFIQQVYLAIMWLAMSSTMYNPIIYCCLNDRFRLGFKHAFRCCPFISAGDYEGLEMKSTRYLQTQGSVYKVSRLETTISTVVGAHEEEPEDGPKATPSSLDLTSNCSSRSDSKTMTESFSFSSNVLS

hNK3, IP3 Efficacy (hNK3R) [%]	EC50 (hNK3R; COS-7 cells)	hNK1R, IP3 Efficacy (hNK1R)	SMILES	EC50 (hNK2R [1])	EC50 (hNK2R [2])	hNK2R, IP3 Efficacy (hNK2R [2])	EC50 (hNK1R; COS-7 cells)	hNK1R, IP3 Efficacy (hNK1R; [3])	hNK3, IP3 Efficacy (hNK3R; [3])
100	66 nM and 65 nM and 60 to 7000 nM		CCCC[C@H](NC(=O)[C@H](CC(C)C)N(C)C(=O)CNC(=O)[C@@H](NC(=O)[C@H](Cc1ccccc1)NC(=O)[C@H](CCCCN)NC(=O)[C@H](CC(=O)O)NC(=O)COCCOCCNC(=O)COCCOCCNC(=O)CC[C@H](NC(=O)CCCCCCCCCCCCCCCCC(=O)O)C(=O)O)C(C)C)C(N)=O [compound 304, *Asp;Lys;Phe;Val;Gly;NmLeu;Nle;NH2]	25 nM	2.1 nM and 1 to 11 nM	90% and 100% and 80-90%	34 nM and 40 nM and 12 to 250 nM	80% and 80-85%	65% and 60% and 85-100%
	~730 nM and ~720 nM	17-50%	CCCC[C@H](NC(=O)[C@H](CC(C)C)N(C)C(=O)CNC(=O)[C@@H](NC(=O)[C@H](Cc1ccc(O)cc1)NC(=O)[C@H](CCCCN)NC(=O)[C@H](CC(=O)O)NC(=O)COCCOCCNC(=O)COCCOCCNC(=O)CC[C@H](NC(=O)CCCCCCCCCCCCCCCCC(=O)O)C(=O)O)C(C)C)C(N)=O [compound 305, *Asp;Lys;Tyr;Val;Gly;NmLeu;Nle;NH2] ({C18 diacid-γGlu-AEEA-AEEA}-DKYVG[NMeL][Nle]-NH2)	21 nM and 210 nM and ~100 nM	3.7 nM and 4 nM and 2.2 to 13 nM		520 nM and 450 to 3500 nM	30% and ~30%	
			COCC[C@H](NC(=O)[C@H](CC(C)C)N(C)C(=O)CNC(=O)[C@@H](NC(=O)[C@H](Cc1ccc(O)cc1)NC(=O)[C@H](CCCCN)NC(=O)[C@H](CC(=O)O)NC(=O)COCCOCCNC(=O)COCCOCCNC(=O)CC[C@H](NC(=O)CCCCCCCCCCCCCCCCC(=O)O)C(=O)O)C(C)C)C(N)=O [compound 344, *Asp;Lys;Tyr;Val;Gly;NmLeu;Metox;NH2] ({C18 diacid-γGlu-AEEA-AEEA}-DKYVG[NMeL][hSer](Me)-NH2)	94 nM and 90 nM	2.2 nM and 3.1 nM and 5 nM and 3.2 nM	90% and 100% and 110%	~160 nM	30% and 50% and ~30%	

SMILES	hNK3, IP3 Efficacy (hNK3R) [%]	EC50 (hNK3R; COS-7 cells)	hNK1R, IP3 Efficacy (hNK1R)	EC50 (hNK2R [1])	EC50 (hNK2R [2])	hNK2R, IP3 Efficacy (hNK2R [2])	EC50 (hNK1R; COS-7 cells)	hNK1R, IP3 Efficacy (hNK1R; [3])	hNK3, IP3 Efficacy (hNK3R; [3])
COCC[C@H](NC(=O)[C@H](CC(C)C)N(C)C(=O)CNC(=O)[C@@H](NC(=O)[C@H](Cc1ccccc1)NC(=O)[C@H](CCCCN)NC(=O)[C@H](CC(=O)O)NC(=O)COCCOCCNC(=O)COCCOCCNC(=O)CC[C@H](NC(=O)CCCCCCCCCCCCCCCCC(=O)O)C(=O)O)[C@@H](C)O)C(N)=O [compound 383, *Asp;Lys;Phe;Thr;Gly;NmLeu;Metox;NH2] ({C18 diacid-γGlu-AEEA-AEEA}-DKFTG[NMeL][hSer](Me)-NH2)		313 nM		11 nM	1.6 nM	95%	290 nM	50%	60%

Source: patent US20230406883A1, “COMPOUNDS AND THEIR USE IN TREATMENT OF TACHYKININ RECEPTOR MEDIATED DISORDERS” (Embark Biotech ApS, priority 2020, published 2023)
